From PMC6121902, “Conjugation with Dihydrolipoic Acid Imparts Caffeic Acid Ester Potent Inhibitory Effect on Dopa Oxidase Activity of Human Tyrosinase” (International Journal of Molecular Sciences, 2018)
Values joined by “and” are separate entries in the source; they are usually repeats but may differ in a detail not shown here. Equal entries are not always repeated. Where two headings read alike, the source gives them in different places.

Legend:
[1] = molecular target: T1, tyrosinase from HBL human melanoma cells (Homo sapiens, UniProt P14679); experiment: DO activity of human tyrosinase in HBL cell extracts (MBTH assay, 490 nm); type: biochemical; details: for Km: read-out: Km (apparent)
T1 construct: endogenous in cells; host or cells: HBL human melanoma cells (detergent-solubilized cell extract)
T1 sequence (P14679 19-529): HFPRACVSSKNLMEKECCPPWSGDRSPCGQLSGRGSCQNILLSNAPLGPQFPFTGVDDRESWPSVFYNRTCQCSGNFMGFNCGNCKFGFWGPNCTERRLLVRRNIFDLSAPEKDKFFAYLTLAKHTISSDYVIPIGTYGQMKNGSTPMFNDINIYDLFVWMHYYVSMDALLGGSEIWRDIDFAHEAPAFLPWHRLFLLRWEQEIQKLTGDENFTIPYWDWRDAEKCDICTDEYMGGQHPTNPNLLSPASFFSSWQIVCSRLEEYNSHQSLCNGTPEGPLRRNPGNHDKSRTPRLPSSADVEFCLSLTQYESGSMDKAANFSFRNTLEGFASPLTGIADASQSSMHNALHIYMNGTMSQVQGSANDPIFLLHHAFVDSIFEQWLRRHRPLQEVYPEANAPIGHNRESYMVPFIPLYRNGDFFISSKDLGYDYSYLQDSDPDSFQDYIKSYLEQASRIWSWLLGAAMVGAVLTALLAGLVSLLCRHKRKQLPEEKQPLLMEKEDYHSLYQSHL
Procedure: In further experiments, the effect of LCAME and LCA was investigated on extracts from HBL human melanoma cells expressing tyrosinase, and the inhibition of DO activity was evaluated. DO activity was determined according to Winder and Harris with some minor modifications: cell extracts were incubated with 3-methyl-2-benzothiazolinone hydrazone (MBTH) and absorbance at 490 nm was measured every 10 min for 1 h.
Cells were solubilized in 1% Igepal, 1% phenylmethylsulfonyl fluoride, 50 mM phosphate buffer (pH 6.8) and centrifuged at 2000 rpm for 5 min.
DO activity determinations were performed according to Winder and Harris with minor modifications. Briefly, cell extracts (usually 50–100 µg protein/assay) were incubated with 5 mM MBTH and 2.5 mM L-DOPA in 50 mM phosphate buffer pH 6.8 in the presence of the indicated concentrations of the compound of choice in a 96-wells plate. DO activity was measured spectrophotometrically in a microplate reader every ten minutes for one hour and was expressed as the slopes calculated with the GraphPad Prism 7 software (Linear Regression, San Diego, CA, USA).
For the analysis of kinetic parameters, the assays were run as above, using different concentrations of L-DOPA (from 0.1 to 2.0 mM) and of the inhibitor (0, 10 and 25 μM) to build the Lineweaver–Burk plot.

mushroom tyrosinase = experiment: Consumption of inhibitor by mushroom tyrosinase (substrate test, HPLC); type: biochemical; details: 100 μM, 10 min
Procedure: Some tyrosinase inhibitors are also substrates of the enzyme and this is a critical issue because their oxidation can lead to the formation of highly reactive, cytotoxic o-quinones. To rule out this possibility, either LCAME or CAME at 100 μM were exposed to mushroom tyrosinase, in the absence of L-DOPA, and after 10 min, the reaction mixtures were analyzed by HPLC. […] HPLC analyses for determination of the consumption of CAME and LCAME in the presence of mushroom tyrosinase were performed on a Agilent 1100 binary pump instrument equipped with a UV-visible detector using an octadecylsilane-coated column, 250 mm × 4.6 mm, 5 μm particle size (Phenomenex Sphereclone ODS, Bologna, Italy) at 0.7 mL/min, using the following gradient: 0.1% formic acid (eluant a)/ methanol (eluant b): 40% b, 0–10 min; from 40 to 80% b, 47.5–52.5 min; from 80 to 40% b, 52.5–57.5 min. Detection wavelength was set at 280 nm. Stock methanolic solutions of LCAME or CAME, ranging in concentration from 0.02 to 20 mM concentration were prepared dissolving a proper amount of the compound of interest in methanol. 100 μL of these solutions were added to 2 mL of 50 mM phosphate buffer at pH 6.8 (final concentrations range: 0.001–1 mM), in the presence or in the absence of 20 U/mL mushroom tyrosinase. After 10 min incubation at room temperature, 20 μL of a 100 mM solution of L-DOPA or L-tyrosine in 0.6 M HCl, were added (final concentration: 1 mM). Spectrophotometric analysis was performed by measuring the absorbance at 475 nm for 10 min at 2 min intervals. In control experiments, the reaction was run in the absence of LCAME. When required, the experiment was performed as above but adding L-DOP A soon after the addition of LCAME ([…]). In separate experiments, the assay was run as above with LCAME or CAME at 100 μM, in the presence or absence of L-DOPA, and after 10 min the mixture was analyzed by HPLC.

IC50 ([1]; DO activity, HBL cell extracts, L-DOPA 2.5 mM, read-out: IC50 (Mean ± SEM)): 30 µM and 30.1 µM
Ki ([1]; DO activity, competitive model Km^app = Km (1 + [I]/Ki)): 34.7 ± 1.1 µM
type of inhibition (Lineweaver–Burk) ([1]; L-DOPA 0.1 to 2.0 mM, LCAME 10 or 25 μM): competitive inhibition
Vmax ([1]; [LCAME] 10 μM): 0.18 ± 0.02 ∆A490/min mg
Km ([1]; [LCAME] 10 μM): 1430 ± 300 µM
Vmax ([1]; [LCAME] 25 μM): 0.19 ± 0.03 ∆A490/min mg
Km ([1]; [LCAME] 25 μM): 1950 ± 500 µM
inhibitory effect on DO activity ([1]; fixed concentration of 25 μM, HBL cell extracts): significant inhibitory effect
consumption of the inhibitor (mushroom tyrosinase; absence of L-DOPA): no significant consumption
consumption of the inhibitor (mushroom tyrosinase; presence of L-DOPA): The same result
Compound: COC(=O)/C=C/c1ccc(O)c(O)c1SCCC(S)CCCCC(=O)O (stereo not shown) [LCAME, 2-S-lipoylcaffeic acid methyl ester]
